Results as given in US12162890B2 (Novartis AG, priority 2015, dated 2024).

biological target: HEK293 cells with stable expression of the GRIN1 gene and tetracycline-inducible expression of the GRIN2B gene (NMDA receptor, NR2B) (Homo sapiens, UniProt Q13224); experiment: Fluo-8 Ca2+ flux assay: reversal of Ro 25-6981-mediated suppression of the Ca2+ response to co-agonist (glutamate/glycine); assay type: cell-based; conditions: reversal of the Ro 25-6981 suppression of the Ca2+ response to co-agonist (glutamate/glycine); also: test concentration or dose not given here
Sequence (Q13224 27-1484, other chains not shown): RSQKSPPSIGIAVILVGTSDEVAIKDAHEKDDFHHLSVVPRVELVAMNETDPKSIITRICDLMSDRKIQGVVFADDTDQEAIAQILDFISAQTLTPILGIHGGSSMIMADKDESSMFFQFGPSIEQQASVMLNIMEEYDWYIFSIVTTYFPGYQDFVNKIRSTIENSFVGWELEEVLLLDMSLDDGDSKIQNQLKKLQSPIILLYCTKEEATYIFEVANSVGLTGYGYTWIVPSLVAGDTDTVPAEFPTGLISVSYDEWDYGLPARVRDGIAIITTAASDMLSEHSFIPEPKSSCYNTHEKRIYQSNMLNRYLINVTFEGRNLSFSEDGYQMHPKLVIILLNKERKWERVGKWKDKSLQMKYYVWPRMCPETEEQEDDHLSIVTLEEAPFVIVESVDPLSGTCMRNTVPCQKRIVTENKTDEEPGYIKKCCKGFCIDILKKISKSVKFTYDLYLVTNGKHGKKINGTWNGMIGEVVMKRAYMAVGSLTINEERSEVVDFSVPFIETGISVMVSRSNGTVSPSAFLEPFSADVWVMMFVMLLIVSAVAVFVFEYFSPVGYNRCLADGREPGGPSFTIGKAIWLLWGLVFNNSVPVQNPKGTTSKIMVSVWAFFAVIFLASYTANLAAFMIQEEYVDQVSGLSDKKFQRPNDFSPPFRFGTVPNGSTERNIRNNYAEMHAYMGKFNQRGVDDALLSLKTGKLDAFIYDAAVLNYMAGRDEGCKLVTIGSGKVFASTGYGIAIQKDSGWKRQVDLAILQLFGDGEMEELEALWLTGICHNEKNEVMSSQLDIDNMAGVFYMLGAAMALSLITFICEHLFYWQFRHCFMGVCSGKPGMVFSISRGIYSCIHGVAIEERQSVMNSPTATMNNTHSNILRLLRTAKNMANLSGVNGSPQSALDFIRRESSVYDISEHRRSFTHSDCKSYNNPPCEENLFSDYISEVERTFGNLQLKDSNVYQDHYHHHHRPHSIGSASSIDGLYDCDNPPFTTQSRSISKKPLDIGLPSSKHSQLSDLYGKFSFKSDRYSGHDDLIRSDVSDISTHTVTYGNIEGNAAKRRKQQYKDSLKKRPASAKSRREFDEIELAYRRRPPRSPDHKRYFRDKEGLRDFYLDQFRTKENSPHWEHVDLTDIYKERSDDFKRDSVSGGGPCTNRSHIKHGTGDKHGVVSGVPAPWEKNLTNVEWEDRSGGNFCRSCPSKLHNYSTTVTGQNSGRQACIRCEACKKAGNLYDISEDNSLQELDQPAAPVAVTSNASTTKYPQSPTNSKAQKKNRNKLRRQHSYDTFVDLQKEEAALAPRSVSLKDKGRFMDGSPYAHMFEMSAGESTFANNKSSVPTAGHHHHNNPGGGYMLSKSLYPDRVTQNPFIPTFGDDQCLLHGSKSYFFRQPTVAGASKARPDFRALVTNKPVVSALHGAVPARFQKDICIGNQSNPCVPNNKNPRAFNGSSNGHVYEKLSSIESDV

Which “Response Recovered (%)” value does the source give for `O=C(Cn1cnc2csc(-c3ccc(Cl)c(F)c3)c2c1=O)N1CC(F)(F)C1` [Example 363, 5-(4-chloro-3-fluorophenyl)-3-(2-(3,3-difluoroazetidin-1-yl)-2-oxoethyl)thieno[3,4-d]pyrimidin-4(3H)-one] here?
The value was 16%.

How did the “Response Recovered (%)” value turn out when `O=C(Cn1cnc2csc(-c3ccc(Cl)c(F)c3)c2c1=O)N1CCC(F)C1` (stereo not drawn) [Example 364, 5-(4-chloro-3-fluorophenyl)-3-(2-(3-fluoropyrrolidin-1-yl)-2-oxoethyl)thieno[3,4-d]pyrimidin-4(3H)-one] was run?
Its value is 35%.

For `O=C(Cn1cnc2csc(-c3ccc(Cl)c(F)c3)c2c1=O)N1CCC(C(F)(F)F)C1` (stereo not drawn) [Example 365, 5-(4-chloro-3-fluorophenyl)-3-(2-oxo-2-(3-(trifluoromethyl)pyrrolidin-1-yl)ethyl)thieno[3,4-d]pyrimidin-4(3H)-one], which “Response Recovered (%)” value is on record?
The value was 4%.

Which “Response Recovered (%)” value does the source give for `O=C(Cn1cnc2csc(-c3ccc(Cl)c(C(F)(F)F)c3)c2c1=O)N1CCCC1` [Example 366, 5-(4-chloro-3-(trifluoromethyl)phenyl)-3-(2-oxo-2-(pyrrolidin-1-yl)ethyl)thieno[3,4-d]pyrimidin-4(3H)-one] here?
The value was 34%.

Which “Response Recovered (%)” value does the source give for `O=C(Cn1cnc2csc(-c3ccc(Cl)c(F)c3)c2c1=O)N1CCCC1` [Example 367, 5-(4-chloro-3-fluorophenyl)-3-(2-oxo-2-(pyrrolidin-1-yl)ethyl)thieno[3,4-d]pyrimidin-4(3H)-one] here?
The value was 15%.

How did the “Response Recovered (%)” value turn out when `O=C(Cn1cnc2c(Br)sc(-c3ccc(Cl)c(F)c3)c2c1=O)N1CCCC1` [Example 368, 7-bromo-5-(4-chloro-3-fluorophenyl)-3-(2-oxo-2-(pyrrolidin-1-yl)ethyl)thieno[3,4-d]pyrimidin-4(3H)-one] was run?
Its value is 41%.

How did the “Response Recovered (%)” value turn out when `Cc1sc(-c2ccc(Cl)c(F)c2)c2c(=O)n(CC(=O)N3CCCC3)cnc12` [Example 369, 5-(4-chloro-3-fluorophenyl)-7-methyl-3-(2-oxo-2-(pyrrolidin-1-yl)ethyl)thieno[3,4-d]pyrimidin-4(3H)-one] was run?
The value was 33%.

For `O=C(Cn1cnc2ccn(-c3ccc(Cl)cc3)c2c1=O)N1CCC1` [Example 370, 3-(2-(azetidin-1-yl)-2-oxoethyl)-5-(4-chlorophenyl)-3H-pyrrolo[3,2-d]pyrimidin-4(5H)-one], which “Response Recovered (%)” value is on record?
The value was 4%.

For `O=C(Cn1cnc2ccn(-c3ccc(Cl)cc3)c2c1=O)N1CCOCC1` [Example 371, 5-(4-chlorophenyl)-3-(2-morpholino-2-oxoethyl)-3H-pyrrolo[3,2-d]pyrimidin-4(5H)-one], which “Response Recovered (%)” value is on record?
The value was 1%.

With `COC1CN(C(=O)Cn2cnc3ccn(-c4ccc(Cl)cc4)c3c2=O)C1` [Example 372, 5-(4-chlorophenyl)-3-(2-(3-methoxyazetidin-1-yl)-2-oxoethyl)-3H-pyrrolo[3,2-d]pyrimidin-4(5H)-one] as the compound, how does the “Response Recovered (%)” value read?
Its value is 1%.

Which “Response Recovered (%)” value does the source give for `O=C(Cn1cnc2ccn(-c3ccc(Cl)cc3)c2c1=O)N1CCC(F)(F)CC1` [Example 373, 5-(4-chlorophenyl)-3-(2-(4,4-difluoropiperidin-1-yl)-2-oxoethyl)-3H-pyrrolo[3,2-d]pyrimidin-4(5H)-one] here?
The value was 3%.

How did the “Response Recovered (%)” value turn out when `O=C(Cn1cnc2ccn(-c3ccc(Cl)cc3)c2c1=O)N1CC(F)(F)C1` [Example 374, 5-(4-chlorophenyl)-3-(2-(3,3-difluoroazetidin-1-yl)-2-oxoethyl)-3H-pyrrolo[3,2-d]pyrimidin-4(5H)-one] was run?
The value was 4%.

How did the “Response Recovered (%)” value turn out when `O=C(Cn1cnc2ccn(-c3ccc(Cl)cc3)c2c1=O)NC1CC1` [Example 375, 2-(5-(4-chlorophenyl)-4-oxo-4,5-dihydro-3H-pyrrolo[3,2-d]pyrimidin-3-yl)-N-cyclopropylacetamide] was run?
Its value is 0%.

`O=C(Cn1cnc2ccn(-c3ccc(Cl)cc3)c2c1=O)N1CCCC1` [Example 376, 5-(4-chlorophenyl)-3-(2-oxo-2-(pyrrolidin-1-yl)ethyl)-3H-pyrrolo[3,2-d]pyrimidin-4(5H)-one] was tested. Which “Response Recovered (%)” value did it give?
The value was 3%.

With `O=C(Cn1cnc2ccn(-c3ccc(Cl)cc3)c2c1=O)N1CCCCC1` [Example 377, 5-(4-chlorophenyl)-3-(2-oxo-2-(piperidin-1-yl)ethyl)-3H-pyrrolo[3,2-d]pyrimidin-4(5H)-one] as the compound, how does the “Response Recovered (%)” value read?
The value was 1%.

For `O=C(Cn1cnc2ccn(-c3ccc(Cl)cc3)c2c1=O)N1CCCC1C(F)(F)F` (stereo not drawn) [Example 379, 5-(4-chlorophenyl)-3-(2-oxo-2-(2-(trifluoromethyl)pyrrolidin-1-yl)ethyl)-3H-pyrrolo[3,2-d]pyrimidin-4(5H)-one], which “Response Recovered (%)” value is on record?
The value was 5%.

How did the “Response Recovered (%)” value turn out when `O=C(Cn1cnc2snc(-c3ccc(Cl)cc3)c2c1=O)N1CCCC1` [Example 380, 3-(4-chlorophenyl)-5-(2-oxo-2-(pyrrolidin-1-yl)ethyl)isothiazolo[5,4-d]pyrimidin-4(5H)-one] was run?
Its value is 6%.

Which “Response Recovered (%)” value does the source give for `O=C(Cn1cnc2snc(-c3ccc(Cl)cc3)c2c1=O)N1CC(F)(F)C1` [Example 381, 3-(4-chlorophenyl)-5-(2-(3,3-difluoroazetidin-1-yl)-2-oxoethyl)isothiazolo[5,4-d]pyrimidin-4(5H)-one] here?
The value was 2%.

For `O=C(Cn1cnc2snc(-c3ccc(Cl)cc3)c2c1=O)N1CCCC1C(F)(F)F` (stereo not drawn) [Example 382, 3-(4-chlorophenyl)-5-(2-oxo-2-(2-(trifluoromethyl)pyrrolidin-1-yl)ethyl)isothiazolo[5,4-d]pyrimidin-4(5H)-one], which “Response Recovered (%)” value is on record?
The value was 9%.

With `O=C(Cn1cnc2onc(-c3ccc(Cl)cc3)c2c1=O)N1CCCC1` [Example 383, 3-(4-chlorophenyl)-5-(2-oxo-2-(pyrrolidin-1-yl)ethyl)isoxazolo[5,4-d]pyrimidin-4(5H)-one] as the compound, how does the “Response Recovered (%)” value read?
Its value is 1%.

Which “Response Recovered (%)” value does the source give for `O=C(Cn1cnc2onc(-c3ccc(Cl)cc3)c2c1=O)N1CCCC1C(F)(F)F` (stereo not drawn) [Example 384, 3-(4-chlorophenyl)-5-{2-oxo-2-[2-(trifluoromethyl)pyrrolidin-1-yl]ethyl}-4H,5H-[1,2]oxazolo[5,4-d]pyrimidin-4-one] here?
Its value is 2%.

How did the “Response Recovered (%)” value turn out when `O=C(Cn1cnc2onc(-c3ccc(Cl)cc3)c2c1=O)N1CC(F)(F)C1` [Example 385, 3-(4-chlorophenyl)-5-(2-(3,3-difluoroazetidin-1-yl)-2-oxoethyl)isoxazolo[5,4-d]pyrimidin-4(5H)-one] was run?
The value was 4%.

With `O=C(Cn1cnc2onc(-c3ccc(Cl)cc3)c2c1=O)N1CCC(F)C1` (stereo not drawn) [Example 386, 3-(4-chlorophenyl)-5-(2-(3-fluoropyrrolidin-1-yl)-2-oxoethyl)isoxazolo[5,4-d]pyrimidin-4(5H)-one] as the compound, how does the “Response Recovered (%)” value read?
Its value is 4%.

Which “Response Recovered (%)” value does the source give for `O=C(Cn1cnc2occ(-c3ccc(Cl)cc3)c2c1=O)N1CCC(C(F)(F)F)C1` (stereo not drawn) [Example 387, 5-(4-chlorophenyl)-3-(2-oxo-2-(3-(trifluoromethyl)pyrrolidin-1-yl)ethyl)furo[2,3-d]pyrimidin-4(3H)-one] here?
Its value is 7%.

`O=C(Cn1cnc2occ(-c3ccc(Cl)cc3)c2c1=O)N1CCCC1` [Example 388, 5-(4-chlorophenyl)-3-(2-oxo-2-(pyrrolidin-1-yl)ethyl)furo[2,3-d]pyrimidin-4(3H)-one] was tested. Which “Response Recovered (%)” value did it give?
Its value is 8%.

`O=C(Cn1cnc2occ(-c3ccc(Cl)cc3)c2c1=O)N1CC(F)(F)C1` [Example 389, 5-(4-chlorophenyl)-3-(2-(3,3-difluoroazetidin-1-yl)-2-oxoethyl)furo[2,3-d]pyrimidin-4(3H)-one] was tested. Which “Response Recovered (%)” value did it give?
The value was 8%.

How did the “Response Recovered (%)” value turn out when `O=C(Cn1ccn2ccc(-c3ccc(F)c(C(F)(F)F)c3)c2c1=O)N1CCC(F)C1` (stereo not drawn) [Example 390, 8-(4-fluoro-3-(trifluoromethyl)phenyl)-2-(2-(3-fluoropyrrolidin-1-yl)-2-oxoethyl)pyrrolo[1,2-a]pyrazin-1(2H)-one] was run?
Its value is 51%.

`O=C(Cn1ccn2ccc(-c3ccc(F)c(C(F)(F)F)c3)c2c1=O)N1CCCC1` [Example 391, 8-(4-fluoro-3-(trifluoromethyl)phenyl)-2-(2-oxo-2-(pyrrolidin-1-yl)ethyl)pyrrolo[1,2-a]pyrazin-1(2H)-one] was tested. Which “Response Recovered (%)” value did it give?
Its value is 77%.

For `O=C(Cn1ccn2ccc(-c3ccc(F)c(Cl)c3)c2c1=O)N1CCCC1` [Example 392, 8-(3-chloro-4-fluorophenyl)-2-(2-oxo-2-(pyrrolidin-1-yl)ethyl)pyrrolo[1,2-a]pyrazin-1(2H)-one], which “Response Recovered (%)” value is on record?
Its value is 118%.

With `O=C(Cn1ccn2ccc(-c3ccc(F)c(Cl)c3)c2c1=O)N1CCC(F)C1` (stereo not drawn) [Example 393, 8-(3-chloro-4-fluorophenyl)-2-(2-(3-fluoropyrrolidin-1-yl)-2-oxoethyl)pyrrolo[1,2-a]pyrazin-1(2H)-one] as the compound, how does the “Response Recovered (%)” value read?
The value was 49%.

Which “Response Recovered (%)” value does the source give for `O=C(Cn1ccn2ccc(-c3ccc(Cl)c(Cl)c3)c2c1=O)N1CCCC1` [Example 394, 8-(3,4-dichlorophenyl)-2-(2-oxo-2-(pyrrolidin-1-yl)ethyl)pyrrolo[1,2-a]pyrazin-1(2H)-one] here?
The value was 62%.

Which “Response Recovered (%)” value does the source give for `O=C(Cn1ccn2ccc(-c3ccc(Cl)c(Cl)c3)c2c1=O)N1CCC(F)C1` (stereo not drawn) [Example 395, 8-(3,4-dichlorophenyl)-2-(2-(3-fluoropyrrolidin-1-yl)-2-oxoethyl)pyrrolo[1,2-a]pyrazin-1(2H)-one] here?
The value was 58%.

`CC1(F)CN(C(=O)Cn2ccn3ccc(-c4ccc(Cl)c(Cl)c4)c3c2=O)C1` [Example 396, 8-(3,4-dichlorophenyl)-2-(2-(3-fluoro-3-methylazetidin-1-yl)-2-oxoethyl)pyrrolo[1,2-a]pyrazin-1(2H)-one] was tested. Which “Response Recovered (%)” value did it give?
Its value is 140%.

`CC1(F)CN(C(=O)Cn2ccn3ccc(-c4ccc(F)c(Cl)c4)c3c2=O)C1` [Example 397, 8-(3-chloro-4-fluorophenyl)-2-(2-(3-fluoro-3-methylazetidin-1-yl)-2-oxoethyl)pyrrolo[1,2-a]pyrazin-1(2H)-one] was tested. Which “Response Recovered (%)” value did it give?
The value was 140%.

How did the “Response Recovered (%)” value turn out when `O=C(Cn1ccn2ccc(-c3ccc(F)c(Cl)c3)c2c1=O)N1CC(F)(C2CC2)C1` [Example 398, 8-(3-chloro-4-fluorophenyl)-2-(2-(3-cyclopropyl-3-fluoroazetidin-1-yl)-2-oxoethyl)pyrrolo[1,2-a]pyrazin-1(2H)-one] was run?
The value was 43%.

How did the “Response Recovered (%)” value turn out when `O=C(Cn1ccn2ccc(-c3ccc(F)c(Cl)c3)c2c1=O)N1CC(F)(c2ccccc2)C1` [Example 399, 8-(3-chloro-4-fluorophenyl)-2-(2-(3-fluoro-3-phenylazetidin-1-yl)-2-oxoethyl)pyrrolo[1,2-a]pyrazin-1(2H)-one] was run?
The value was 1.5%.
